Test results as given in ChEMBL document CHEMBL1275245, “Clinical and toxicodynamic evidence that high-dose pyrazinamide is not more hepatotoxic than the low doses currently used” (Antimicrob Agents Chemother, 2010).

Assays:
Homo sapiens [1] = species on record: Homo sapiens; assay: Toxicity in TB patients assessed as death; assay type: organism-based; settings: in vivo
Homo sapiens [2] = assay: Hepatotoxicity in TB patients assessed as elevated aspartate aminotransferase level at 30 g/kg; assay type: toxicity, organism-based; settings: in vivo, 30000 mg/kg
Homo sapiens [3] = assay: Hepatotoxicity in TB patients assessed as abnormal flocculation at 3.7 g/kg/day measured after 87 days; assay type: toxicity, organism-based; settings: in vivo, 3700 mg/kg, 2088 h
Homo sapiens [4] = species on record: Homo sapiens; assay: Toxicity in TB patients assessed as arthralgia; assay type: organism-based; settings: in vivo
Homo sapiens [5] = assay: Hepatotoxicity in TB patients assessed as abnormal flocculation at 3.7 g/kg/day measured after 52 days; assay type: toxicity, organism-based; settings: in vivo, 3700 mg/kg, 1248 h
Homo sapiens [6] = assay: Hepatotoxicity in TB patients assessed as jaundice at 3.7 g/kg/day measured after 87 days; assay type: toxicity, organism-based; settings: in vivo, 3700 mg/kg, 2088 h
Homo sapiens [7] = assay: Hepatotoxicity in TB patients assessed as jaundice at 3.7 g/kg/day measured after 52 days; assay type: toxicity, organism-based; settings: in vivo, 3700 mg/kg, 1248 h
Homo sapiens [8] = assay: Pharmacokinetic parameter in TB patient serum assessed as percentage of time the compound persisted above 5 mg/L at 1500 mg/kg daily; assay type: ADME, organism-based; set-up: dose 1500 mg/kg; settings: in vivo
Homo sapiens [9] = assay: Pharmacokinetic parameter in TB patient serum assessed as percentage of time the compound persisted above 5 mg/L at 3000 mg/kg administered alternate day; assay type: ADME, organism-based; set-up: dose 3000 mg/kg; settings: in vivo
Homo sapiens [10] = species on record: Homo sapiens; assay: Pharmacokinetic parameter in TB patient serum assessed as percentage of time the compound persisted above 5 mg/L at 500 mg/ kg TID; assay type: ADME, organism-based; set-up: dose 500 mg/ kg; settings: in vivo
Homo sapiens [11] = assay: Pharmacokinetic parameter in TB patient serum assessed as percentage of time the compound persisted above 10 mg/L at 3000 mg/kg administered alternate day; assay type: ADME, organism-based; set-up: dose 3000 mg/kg; settings: in vivo
Homo sapiens [12] = assay: Pharmacokinetic parameter in TB patient serum assessed as percentage of time the compound persisted above 10 mg/L at 1500 mg/kg daily; assay type: ADME, organism-based; set-up: dose 1500 mg/kg; settings: in vivo
Homo sapiens [13] = species on record: Homo sapiens; assay: Pharmacokinetic parameter in TB patient serum assessed as percentage of time the compound persisted above 10 mg/L at 500 mg/ kg TID; assay type: ADME, organism-based; set-up: dose 500 mg/ kg; settings: in vivo
Homo sapiens [14] = assay: Pharmacokinetic parameter in TB patient serum assessed as percentage of time the compound persisted above 20 mg/L at 3000 mg/kg administered alternate day; assay type: ADME, organism-based; set-up: dose 3000 mg/kg; settings: in vivo
Homo sapiens [15] = assay: Pharmacokinetic parameter in TB patient serum assessed as percentage of time the compound persisted above 20 mg/L at 1500 mg/kg daily; assay type: ADME, organism-based; set-up: dose 1500 mg/kg; settings: in vivo
[16] = Cmax in TB patient serum at 3000 mg/kg administered alternate day; assay type: ADME, organism-based; set-up: dose 3000 mg/kg; settings: human
Homo sapiens [17] = species on record: Homo sapiens; assay: Pharmacokinetic parameter in TB patient serum assessed as percentage of time the compound persisted above 20 mg/L at 500 mg/ kg TID; assay type: ADME, organism-based; set-up: dose 500 mg/ kg; settings: in vivo
[18] = Cmax in TB patient serum at 500 mg/kg TID; assay type: ADME, organism-based; set-up: dose 500 mg/kg; settings: human
[19] = Cmax in TB patient serum at 1500 mg/kg daily; assay type: ADME, organism-based; set-up: dose 1500 mg/kg; settings: human
[20] = AUC (0 to 168 hrs) in serum of TB patient at 1500 mg/kg daily; assay type: ADME, organism-based; set-up: time < 168 hr, dose 1500 mg/kg; settings: human
[21] = AUC (0 to 168 hrs) in serum of TB patient at 3000 mg/kg administered alternate day; assay type: ADME, organism-based; set-up: time < 168 hr, dose 3000 mg/kg; settings: human
[22] = AUC (0 to 168 hrs) in TB patient serum at 500 mg/ kg TID; assay type: ADME, organism-based; set-up: time < 168 hr, dose 500 mg/ kg; settings: human
[23] = Systemic clearance in TB patient serum at 1500 mg/kg daily; assay type: ADME, organism-based; set-up: dose 1500 mg/kg; settings: human
[24] = Systemic clearance in TB patient serum at 3000 mg/kg administered alternate day; assay type: ADME, organism-based; set-up: dose 3000 mg/kg; settings: human
[25] = Systemic clearance in TB patient serum at 500 mg/ kg TID; assay type: ADME, organism-based; set-up: dose 500 mg/ kg; settings: human
Homo sapiens [26] = assay: Hepatotoxicity in TB patients assessed as elevated aspartate aminotransferase level at 40 g/kg; assay type: toxicity, organism-based; settings: in vivo, 40000 mg/kg
Homo sapiens [27] = assay: Hepatotoxicity in TB patients assessed as elevated aspartate aminotransferase level at 60 g/kg; assay type: toxicity, organism-based; settings: in vivo, 60000 mg/kg

NC(=O)c1cnccn1 [PYRAZINAMIDE]
Activity (Homo sapiens [1]): Toxic
Activity (Homo sapiens [2]): Non-toxic
Activity (Homo sapiens [3]): Non-toxic
Activity (Homo sapiens [4]): Toxic
Activity (Homo sapiens [5]): Non-toxic
Activity (Homo sapiens [6]): Non-toxic
Activity (Homo sapiens [7]): Non-toxic
Activity (Homo sapiens [8]): 74%
Activity (Homo sapiens [9]): 48%
Activity (Homo sapiens [10]): 92%
Activity (Homo sapiens [11]): 35%
Activity (Homo sapiens [12]): 49%
Activity (Homo sapiens [13]): 67%
Activity (Homo sapiens [14]): 23%
Activity (Homo sapiens [15]): 24%
Cmax [16]: 67500 ng/mL
Activity (Homo sapiens [17]): 9%
Cmax [18]: 20200 ng/mL
Cmax [19]: 33800 ng/mL
AUC at 168 h [20]: 2270 µg·h/mL
AUC(0-t) at 168 h [21]: 2160 µg·h/mL
AUC at 168 h [22]: 2190 µg·h/mL
clearance [23]: 66.2 mL/min
clearance [24]: 69.3 mL/min
clearance [25]: 68.5 mL/min
Activity (Homo sapiens [26]): Non-toxic
Activity (Homo sapiens [27]): Non-toxic
